# Measurements: patent US20240229043A1, “Methods and Compositions for Treating, Ameliorating, and/or Preventing Chronic Kidney Disease (CKD) and Complications thereof by Regulating DPEP1, CASP9, ACSS2 and/or FASN” (THE TRUSTEES OF THE UNIVERSITY OF PENNSYLVANIA, priority 2022, published 2024)
# Peptide text beside a SMILES is read from it. * marks the point of attachment. Cbz = O=C(OCc1ccccc1)*; CH2F = FC*
# Experiments:
# [1] = test system: Rat epithelial cells (NRK-52E); assay: Cisplatin-induced LDH release in siControl and siChmp1a transfected cells pretreated with cell death inhibitors; type: cell-based; conditions: siControl and siChmp1a cells pretreated with inhibitor 18 h, then 20 μM cisplatin 24 h
# Method: Rat epithelial cells (NRK-52E; ATCC (CRL-1571)) were cultured in DMEM with 5% fetal bovine serum (FBS). Dpep1 and Chmp1a siRNA were purchased from Dharmacon. Dpep1-overexpressing vector pCMV6-Entry was purchased from OriGene Technologies, Inc. Transfection of gene-targeting siRNA, negative control siRNA, and overexpressing plasmid were performed using Lipofectamine 3000.
# For transfection, cells were seeded in six-well plates, grown overnight until 60-70% confluency, and then transfected with 50 nM (final concentration) siRNA or 5 μg Dpep1-overexpression plasmids. Transfection efficiency was determined under a fluorescence microscope by the presence of Cy3 transfection control. […] After 24 h of Dpep1 siRNA transfection, cells were treated with cell death inducers for 18-20 h, respectively: 5 μM Nigericin (Sigma #N7143); 5 μM CPT (Cayman #11694); 5 μM erastin (Cayman #17754), 20 μM FIN56 (Cayman #25180), 5 μM FINO2 (Cayman #25096) and 5 μM RSL3 (Cayman #19288).
# (§1) Mouse primary tubular epithelial cells from wild-type, mutant mice or NRK52E cells were plated in 96-well plate. Transfection of NRK52E cells with siRNA was carried out as described above. […] Cells were harvested and stained with trypan blue (Thermo Fisher #T10282) to visualize dead cells. Cell counts were analyzed in Countess Auto Counter (Invitrogen, C10227). LDH release was quantified using CytoTox 96 Non-Radioactive Cytotoxicity Assay (Promega #G1780). Medium was collected in triplicates, spun down, and incubated in a 96-well plate with the CytoTox reagent for 20-30 min. After adding the stop solution, the absorbance signal was measured at 490 nm in a plate reader. The ratio between dead cell and live cell was calculated through the measurement using MultiTox-Fluor Multiplex Cytotoxicity Assay (Promega #9201). Cells were incubated in assay buffer containing live cell substrate GF-AFC and dead cell substrate bis-AAF-R110 for 30 min at 37° C. The plate fluorescence was measured using a plate reader as following: viability: excitation ˜400 nm; emission ˜505 nm. cytotoxicity: excitation ˜485 nm; emission ˜520 nm.
# [2] = test system: primary TECs; assay: Cisplatin-treated primary kidney tubule cells from wild-type and Chmp1a+/- mice; type: cell-based
# Method: For primary culture of renal tubule cells, kidneys were collected from 2- to 4-week-old male mice. Cells were isolated by 2 mg/ml collagenase I (Gibco #17018-029) digestion for 30 min at 37° C. with gentle stirring and filtered through a 100-μm mesh. The cell suspension was cultured in RPMI 1640 (Corning #10-040-CM) supplement with 10% FBS (Atlanta Biologicals #S11950), 20 ng/ml EGF (Peprotech #AF-100-15), 1×ITS (Gibco #51500-056), and 1% penicillin-streptomycin (Corning #30-002-CI) at 5% CO2 and 37° C.
# Primary cultured renal tubule cells or NRK52E cells were incubated with 1 μM transferrin (Thermo Fisher #T13342) for 4 h, or 5 μM mitoSOX (ThermoFisher #M36008) for 10 min, or 2 μM BODIPY™ 581/591 C11 (Thermo Fisher #D3861) for 0.5 h, or 20 ng/ml dextran conjugated to 488 (Thermo Fisher #D22910) for 2 h, at 5% CO2 and 37° C., respectively. After washing with PBS, cells were imaged directly under the confocal or regular fluorescence microscope.
# as §1
# [3] = test system: ferroptosis; assay: Cisplatin-induced injury in Chmp1a+/- mice injected with liproxstatin; type: in vivo; conditions: for protection from cisplatin-induced injury / kidney disease: Chmp1a+/- (heterozygous) mice
# Method: Eight- to ten-week-old male mice were used in this study. All mice were maintained under SPF conditions with ambient temperature 20-22, humidity 50-70%, and a 12/12 h light/dark cycle. All animal experiments were reviewed and approved and were performed in accordance with the institutional guidelines. Dpep1 mutant mice were generated by co-injection of Cas9 mRNA (100 ng/μl; ThermoFisher, A29378), sgRNA (50 ng/μl) in CRISPR Cas9 Mouse Targeting Core of University of Pennsylvania. Two sgRNAs were generated with Guide-it™ sgRNA In Vitro Transcription Kit (Takara #632635). Chmp1a mutant mice were imported from Mutant Mouse Regional Resource Center of UC Davis (#031089-UCD). For FA-induced nephropathy mouse models, 8-week-old male wild-type and Dpep1^+/− or Chmp1a^+/− mice were injected with FA (250 or 200 mg/kg, dissolved in 300 mM sodium bicarbonate) intraperitoneally and euthanized on day 7. […] Mice were euthanized on day 3. For the UUO model, mice underwent ligation of the left ureter and were euthanized on day 7, and sham-operated mice were used as controls.
# Serum creatinine was measured by Creatinine Enzymatic and Creatinine Standard (DIAZYME #DZ072B-KY1). Serum BUN was measured by Infinity™ Urea Liquid Stable Reagent (Pointe Scientific #B7552150). Both measurements were performed according to the manufacturers' instructions.
# RNA was isolated from mouse kidneys or cultured cells using Trizol reagent (Invitrogen) and was reverse transcribed into cDNA using cDNA Archival Kit (Life Technologies). Real-time RT-PCR was performed using SYBR Green Master Mix (Applied Biosystems).
# [4] = target: FASN (Mus musculus, UniProt P19096); conditions: primary TECs; various concentrations for 48 h
# FASN, sequence (P19096 whole entry): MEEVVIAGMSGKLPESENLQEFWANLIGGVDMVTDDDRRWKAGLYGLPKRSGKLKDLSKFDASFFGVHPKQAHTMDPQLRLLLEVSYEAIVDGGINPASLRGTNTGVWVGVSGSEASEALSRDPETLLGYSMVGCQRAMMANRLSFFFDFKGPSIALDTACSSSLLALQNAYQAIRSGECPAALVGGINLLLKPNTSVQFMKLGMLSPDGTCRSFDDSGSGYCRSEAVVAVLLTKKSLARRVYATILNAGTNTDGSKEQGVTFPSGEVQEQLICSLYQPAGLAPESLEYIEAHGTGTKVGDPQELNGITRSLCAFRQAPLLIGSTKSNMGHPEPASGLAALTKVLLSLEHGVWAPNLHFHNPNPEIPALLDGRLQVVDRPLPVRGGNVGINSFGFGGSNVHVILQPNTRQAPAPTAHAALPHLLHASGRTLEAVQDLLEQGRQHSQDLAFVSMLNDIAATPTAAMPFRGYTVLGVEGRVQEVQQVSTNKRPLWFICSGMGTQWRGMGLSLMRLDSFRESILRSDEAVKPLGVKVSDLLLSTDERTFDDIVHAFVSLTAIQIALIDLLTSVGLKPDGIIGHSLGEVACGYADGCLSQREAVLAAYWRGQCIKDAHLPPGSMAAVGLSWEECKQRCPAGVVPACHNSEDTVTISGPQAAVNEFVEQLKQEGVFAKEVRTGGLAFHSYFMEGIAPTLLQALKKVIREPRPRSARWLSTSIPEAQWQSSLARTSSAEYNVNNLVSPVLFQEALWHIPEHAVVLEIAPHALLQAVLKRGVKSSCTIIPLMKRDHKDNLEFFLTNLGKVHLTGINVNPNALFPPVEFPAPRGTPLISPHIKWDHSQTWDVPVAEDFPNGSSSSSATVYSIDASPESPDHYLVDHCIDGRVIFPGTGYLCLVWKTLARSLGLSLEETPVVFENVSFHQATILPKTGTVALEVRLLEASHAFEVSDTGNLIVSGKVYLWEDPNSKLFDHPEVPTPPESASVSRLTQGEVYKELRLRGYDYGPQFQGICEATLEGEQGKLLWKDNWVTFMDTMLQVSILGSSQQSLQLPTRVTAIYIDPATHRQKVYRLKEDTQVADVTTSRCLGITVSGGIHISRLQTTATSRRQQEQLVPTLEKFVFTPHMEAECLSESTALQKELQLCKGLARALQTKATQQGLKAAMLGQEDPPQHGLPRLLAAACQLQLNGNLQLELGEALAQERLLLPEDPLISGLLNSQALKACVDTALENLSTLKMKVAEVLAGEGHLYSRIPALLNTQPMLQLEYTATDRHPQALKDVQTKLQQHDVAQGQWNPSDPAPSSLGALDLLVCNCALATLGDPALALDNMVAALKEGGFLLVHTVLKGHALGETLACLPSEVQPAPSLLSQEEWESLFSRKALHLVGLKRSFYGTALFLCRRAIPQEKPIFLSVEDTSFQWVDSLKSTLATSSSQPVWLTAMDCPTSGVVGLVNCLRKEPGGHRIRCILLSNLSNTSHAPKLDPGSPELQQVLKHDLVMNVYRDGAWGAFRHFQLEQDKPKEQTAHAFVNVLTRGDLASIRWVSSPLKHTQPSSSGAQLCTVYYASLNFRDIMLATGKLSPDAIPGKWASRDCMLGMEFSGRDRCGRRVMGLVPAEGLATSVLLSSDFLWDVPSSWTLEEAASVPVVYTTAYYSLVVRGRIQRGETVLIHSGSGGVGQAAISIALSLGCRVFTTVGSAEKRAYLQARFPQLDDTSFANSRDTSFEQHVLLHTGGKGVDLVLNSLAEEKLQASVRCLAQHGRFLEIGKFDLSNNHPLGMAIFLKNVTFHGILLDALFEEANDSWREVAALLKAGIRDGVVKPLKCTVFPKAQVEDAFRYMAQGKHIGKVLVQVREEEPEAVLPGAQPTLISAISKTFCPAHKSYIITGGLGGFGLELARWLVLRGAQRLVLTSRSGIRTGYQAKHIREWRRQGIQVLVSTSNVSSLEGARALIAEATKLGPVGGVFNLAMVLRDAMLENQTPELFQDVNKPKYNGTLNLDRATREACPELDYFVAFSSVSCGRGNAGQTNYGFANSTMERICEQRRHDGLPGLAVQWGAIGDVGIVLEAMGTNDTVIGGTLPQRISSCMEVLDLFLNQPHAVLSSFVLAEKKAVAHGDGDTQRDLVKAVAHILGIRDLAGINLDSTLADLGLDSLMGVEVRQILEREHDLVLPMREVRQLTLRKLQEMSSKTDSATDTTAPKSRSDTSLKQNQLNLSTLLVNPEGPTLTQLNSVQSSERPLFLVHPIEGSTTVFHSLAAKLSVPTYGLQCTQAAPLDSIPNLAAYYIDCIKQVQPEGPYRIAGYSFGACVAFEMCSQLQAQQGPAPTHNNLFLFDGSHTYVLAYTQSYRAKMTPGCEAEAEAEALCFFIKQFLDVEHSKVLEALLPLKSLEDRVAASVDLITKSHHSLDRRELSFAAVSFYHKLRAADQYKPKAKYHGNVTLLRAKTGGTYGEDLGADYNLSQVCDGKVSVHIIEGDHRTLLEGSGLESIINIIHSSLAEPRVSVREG
# [5] = target: T1, CASP9 (Mus musculus, UniProt Q8C3Q9); assay: Cisplatin model of kidney injury, mice treated with CASP9 inhibitor; type: in vivo
# T1 construct: from tissue; host or cells: living mice; read-outs in serum and kidney
# T1 sequence (Q8C3Q9 whole entry): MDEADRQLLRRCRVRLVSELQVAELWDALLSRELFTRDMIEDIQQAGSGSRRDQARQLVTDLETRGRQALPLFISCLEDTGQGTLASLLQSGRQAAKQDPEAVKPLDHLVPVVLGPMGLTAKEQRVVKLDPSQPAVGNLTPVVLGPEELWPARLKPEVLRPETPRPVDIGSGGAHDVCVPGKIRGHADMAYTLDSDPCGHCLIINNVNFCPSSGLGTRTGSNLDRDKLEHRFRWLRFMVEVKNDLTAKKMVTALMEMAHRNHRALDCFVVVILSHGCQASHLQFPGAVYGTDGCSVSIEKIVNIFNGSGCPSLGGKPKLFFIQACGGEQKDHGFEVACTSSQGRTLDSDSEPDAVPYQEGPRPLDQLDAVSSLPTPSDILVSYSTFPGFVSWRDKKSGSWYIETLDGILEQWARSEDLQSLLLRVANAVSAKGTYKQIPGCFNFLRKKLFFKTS
# T1 sequence (O88879 whole entry partner): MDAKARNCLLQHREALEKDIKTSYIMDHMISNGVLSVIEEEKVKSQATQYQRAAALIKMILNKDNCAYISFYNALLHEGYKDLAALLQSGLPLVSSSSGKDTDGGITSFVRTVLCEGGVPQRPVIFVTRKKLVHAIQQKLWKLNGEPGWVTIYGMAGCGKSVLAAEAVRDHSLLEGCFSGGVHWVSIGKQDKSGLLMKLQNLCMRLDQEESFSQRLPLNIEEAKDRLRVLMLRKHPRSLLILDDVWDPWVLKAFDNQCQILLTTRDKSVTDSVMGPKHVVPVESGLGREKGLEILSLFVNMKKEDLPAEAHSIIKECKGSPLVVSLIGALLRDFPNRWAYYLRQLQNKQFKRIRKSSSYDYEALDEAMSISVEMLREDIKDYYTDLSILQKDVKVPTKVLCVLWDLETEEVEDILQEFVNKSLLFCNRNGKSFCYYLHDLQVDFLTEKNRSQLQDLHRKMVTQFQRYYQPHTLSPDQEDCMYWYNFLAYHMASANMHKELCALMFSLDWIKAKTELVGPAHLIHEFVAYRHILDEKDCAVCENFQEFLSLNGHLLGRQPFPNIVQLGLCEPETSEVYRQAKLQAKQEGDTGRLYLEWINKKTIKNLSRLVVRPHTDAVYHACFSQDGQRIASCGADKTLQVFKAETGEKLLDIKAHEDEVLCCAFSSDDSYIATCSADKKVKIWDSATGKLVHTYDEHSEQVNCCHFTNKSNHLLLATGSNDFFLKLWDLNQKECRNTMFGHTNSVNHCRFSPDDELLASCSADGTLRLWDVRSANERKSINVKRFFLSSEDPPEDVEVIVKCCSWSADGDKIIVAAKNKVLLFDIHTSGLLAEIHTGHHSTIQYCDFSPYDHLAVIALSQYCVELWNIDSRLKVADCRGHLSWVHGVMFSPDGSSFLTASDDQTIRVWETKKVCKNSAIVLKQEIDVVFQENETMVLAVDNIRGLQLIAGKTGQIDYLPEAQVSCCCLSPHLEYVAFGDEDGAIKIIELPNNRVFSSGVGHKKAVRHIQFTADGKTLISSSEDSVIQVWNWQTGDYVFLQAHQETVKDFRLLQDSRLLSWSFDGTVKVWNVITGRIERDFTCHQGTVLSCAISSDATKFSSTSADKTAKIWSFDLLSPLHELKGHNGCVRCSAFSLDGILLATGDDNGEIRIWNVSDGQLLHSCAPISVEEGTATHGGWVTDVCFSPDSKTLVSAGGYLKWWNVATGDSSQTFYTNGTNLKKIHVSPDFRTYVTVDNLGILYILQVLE
# T1 sequence (P62897 2-105 partner limits assumed): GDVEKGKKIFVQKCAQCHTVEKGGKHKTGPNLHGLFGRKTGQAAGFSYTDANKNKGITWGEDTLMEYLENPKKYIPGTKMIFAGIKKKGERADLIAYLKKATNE
# Method: Casp9 HZ mice were obtained. Mice were injected intraperitoneally with FA (#10752485 ACROS Organics, 250 mg/kg, dissolved in […] sodium bicarbonate) or sodium bicarbonate (#56014, Sigma-Aldrich) and euthanized on day 7. Mice were euthanized on day 7 after left ureteral ligation or sham surgery. […] Mice were euthanized 18 weeks after uninephrectomy and following low-dose STZ (50 mg/kg, i.p. for 5 days) (streptozotocin, Santa Cruz Biotechnology, #U-9889) or PBS injection. Aging mice were euthanized at 2 years of age. Transgenic mice (Nphs1-rtTA/TRE-APOL1-G2) were placed on a doxycycline diet to induce transgene expression and euthanized.
# RNA was isolated from kidney tissue or cells using TRIzol (Invitrogen, #15596018). RNA was reverse-transcribed using the High-Capacity cDNA Reverse Transcription Kit (Applied Biosystems, #4368813), and qRT-PCR was run in the ViiA 7 System (Life Technologies) instrument using SYBR Green Master Mix (Applied Biosystems, #4367659) and gene-specific primers. For quantitative analysis, samples were normalized to glyceraldehyde-3-phosphate dehydrogenase (GAPDH) with the ΔΔCt method.
# BUN was determined by a TRACE DMA Urea kit (Thermo Electron Corporation, #TR12003), according to the manufacturer's instructions. Electrolytes (Na, K, and Cl) and hemoglobin were measured with the iSTAT Portable Clinical Analyzer using i-STAT CHEM8+ cartridge (Abaxis, #10023291). Kidney tissue was stained with hematoxylin and eosin to investigate renal injury. The degree of tubulointerstitial damage was scored semiquantitatively on a 0 to 5+ scale, according to the percentage of the area affected by hydropic degeneration, hyaline casts, cytoplasmic vacuolization, loss of the brush border, and tubular lumen dilation (0=normal, 1=<10%, 2=10 to 25%, 3=26 to 50%, 4=51 to 75%, and 5=>75%). Sirius red staining was performed according to the manufacturer's protocol (Polysciences, #24901) to determine the degree of fibrosis. For each analysis, five to eight fields were randomly selected and quantified using the Fiji software. Each dot represents the mean score of a single animal.
# Several small molecular inhibitors that target CASP9 have been developed with good specificity. […] Serum creatinine and BUN levels were lower, and renal expression of Havcr1 was dampened in Z-LEHD-FMK-treated mice.
# [6] = cisplatin-injected mice, inhibitor daily starting 1 day before cisplatin, vs vehicle
structure (smiles),measurement,setting,value
Clc1cccc(CN=C2Nc3ccccc3NC23CCNCC3)c1 [liproxstatin1],LDH release,[1],reduced this effect
same,cisplatin-induced cytotoxicity,"[2]; Chmp1a+/- primary TECs, compared with inhibitors of necroptosis, apoptosis, pyroptosis",alleviated
same,lipid peroxidation (C11 BODIPY 581/591) induced by cisplatin,[2]; primary TECs from wild-type or Chmp1a+/- mice,lower
same,protection from cisplatin-induced injury / kidney disease,[3]; listed as Liproxstatin1,protected
same,protection from cisplatin-induced injury / kidney disease,[3]; listed as liproxstatin,marked protection
same,Kidney injury marker Kim1,"[3]; Chmp1a+/- mice, cisplatin",lower
same,serum creatinine level,"[3]; Chmp1a+/- mice, cisplatin",reduced
"CN1C(=O)C(Cc2c[nH]c3ccccc23)NC1=S (stereo not shown) [Nec-1, necrostatin-1]",LDH release,[1],No change
COCc1[nH]c(C(F)(F)F)nc1-c1cc(C(=O)N2CC(c3ccc(C#N)cc3)C2)c(C)cc1C [TVB-3664],cell death (cell viability),[4],did not increase cell death
COC(=O)CC[C@H](NC(=O)[C@H](CC(C)C)NC(=O)OCc1ccccc1)C(=O)N[C@@H](Cc1cnc[nH]1)C(=O)N[C@@H](CC(=O)OC)C(=O)CF [Z-LEHD-FMK] (Cbz-LE(OMe)HD(OMe)-CH2F),"inflammatory cytokines (Il1b, Csf2, Tnfa, and Cxcl10) and Icam1 expression","[5]; after cisplatin injury, qRT-PCR, kidney",lower
same,kidney function and kidney damage,[5]; cisplatin-injected mice,improved kidney function and lessened kidney damage
same,BUN level,[5]; [6],lower
same,serum creatinine level,[5]; [6],lower
same,renal expression of Havcr1,"[5]; cisplatin-injected mice, vs vehicle",dampened
CCO[C@@H]1OC(=O)C[C@@H]1NC(=O)[C@@H]1CCCN1C(=O)[C@@H](NC(=O)c1ccc(N)c(Cl)c1)C(C)(C)C [Vx765],LDH release,[1],No change
COC(=O)C[C@H](NC(=O)[C@H](C)NC(=O)[C@@H](NC(=O)OCc1ccccc1)C(C)C)C(=O)CF [Z-VAD-FMK] (Cbz-Val-Ala-Asp(OMe)-CH2F),LDH release,[1],No change
